Experimental findings from PubChem BioAssay AID330 (DTP/NCI, 2004) are described below.

For the assay, the system named is P388 leukemia ip, CD2F1 mice, survival T/C. Kind of assay: NCI In Vivo Anticancer Drug Screen. Data for tumor model P388 Leukemia (intraperitoneal) in CD2F1 (CDF1) mice. The following applies: endpoint: median survival time, higher = longer survival. The method in brief:
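Mice carrying the transplanted tumor received test compound or vehicle. Survival was recorded in each group, and the value is the treated-group measurement divided by that of the vehicle-treated control group.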

[1] abbreviates: dose: 50.0 mg/kg/injection, schedule: Q01DX009 (ip), vehicle: Klucel (hydroxypropylcellulose) (HPC).
Where [2] appears, read: dose: 100.0 mg/kg/injection, schedule: Q01DX009 (ip), vehicle: Klucel (hydroxypropylcellulose) (HPC).
The mark [3] stands for this setting: dose: 50.0 mg/kg/injection, schedule: Q01DX009 (ip), vehicle: saline.
Where [4] appears, read: dose: 100.0 mg/kg/injection, schedule: Q01DX009 (ip), vehicle: saline.
[5] abbreviates: dose: 50.0 mg/kg/injection, schedule: Q01DX005 (ip), vehicle: Klucel (hydroxypropylcellulose) (HPC).
Setting [6] is: dose: 100.0 mg/kg/injection, schedule: Q01DX005 (ip), vehicle: Klucel (hydroxypropylcellulose) (HPC).
Where [7] appears, read: dose: 200.0 mg/kg/injection, schedule: Q01DX005 (ip), vehicle: Klucel (hydroxypropylcellulose) (HPC).
[8] abbreviates: dose: 100.0 mg/kg/injection, schedule: Q04DX003 (ip), vehicle: saline with Tween-80.
[9] abbreviates: dose: 200.0 mg/kg/injection, schedule: Q04DX003 (ip), vehicle: saline with Tween-80.
[10] abbreviates: dose: 12.5 mg/kg/injection, schedule: Q01DX005 (ip), vehicle: saline with Tween-80.
The mark [11] stands for this setting: dose: 25.0 mg/kg/injection, schedule: Q01DX005 (ip), vehicle: saline with Tween-80.
[12] abbreviates: dose: 50.0 mg/kg/injection, schedule: Q01DX005 (ip), vehicle: saline with Tween-80.
Setting [13] is: dose: 50.0 mg/kg/injection, schedule: Q01DX009 (ip), vehicle: saline with Tween-80.
[14] abbreviates: dose: 100.0 mg/kg/injection, schedule: Q01DX009 (ip), vehicle: saline with Tween-80.
Setting [15] is: dose: 200.0 mg/kg/injection, schedule: Q01DX009 (ip), vehicle: saline with Tween-80.
Where [16] appears, read: dose: 60.0 mg/kg/injection, schedule: Q01DX005 (ip), vehicle: saline with Tween-80.
The mark [17] stands for this setting: dose: 120.0 mg/kg/injection, schedule: Q01DX005 (ip), vehicle: saline with Tween-80.
Where [18] appears, read: dose: 240.0 mg/kg/injection, schedule: Q01DX005 (ip), vehicle: saline with Tween-80.
The mark [19] stands for this setting: dose: 50.0 mg/kg/injection, schedule: Q01DX009 (ip), vehicle: saline + Tween-80 + alcohol.
[20] abbreviates: dose: 100.0 mg/kg/injection, schedule: Q01DX009 (ip), vehicle: saline + Tween-80 + alcohol.

“And” between values parts separate entries of the source, which are not always exact repeats. Equal entries are not always repeated. Inconclusive results and toxic doses are left out.

For the compound `O=S1(=O)CC(Cl)(Br)C1` (tested in a mixture with another compound), the T/C (dose: 12.5 mg/kg/injection, schedule: Q01DX009 (ip), vehicle: Klucel (hydroxypropylcellulose) (HPC)) was 96 % of control; the T/C (dose: 25.0 mg/kg/injection, schedule: Q01DX009 (ip), vehicle: Klucel (hydroxypropylcellulose) (HPC)) is 93 % of control; the T/C under setting [1] was 100 % of control; the T/C under setting [2] is 96 % of control.
Turning to `COC(=O)CS(=O)(=O)CCCCCS(=O)(=O)CC(=O)OC`, the T/C runs as follows: under setting [3], 97 % of control; under setting [4], 106 % of control; (dose: 200.0 mg/kg/injection, schedule: Q01DX009 (ip), vehicle: saline) 99 % of control.
`O=C1NC(O)c2cc(O)ccc2O1` (stereo unspecified): the T/C under setting [5] is 100 % of control, the T/C under setting [6] was 100 % of control and the T/C under setting [7] is 111 % of control.
On to `O=C1C(=C2C=CN(CCN3CCCC3)C=C2)C(=O)c2ccccc21`, for which the T/C under setting [1] is 94 % of control; the T/C under setting [2] was 99 % of control; the T/C (dose: 200.0 mg/kg/injection, schedule: Q01DX009 (ip), vehicle: Klucel (hydroxypropylcellulose) (HPC)) was 99 % of control.
Consider `O=C(N1CCN(C(=O)S(=O)(=O)c2ccc(F)cc2)CC1)S(=O)(=O)c1ccc(F)cc1`, for which the T/C is 99 % of control under setting [5], 98 % of control under setting [6] and 100 % of control under setting [7].
For the compound `CC(=O)c1ccc(-c2ccccc2)cc1`, the T/C under setting [8] was 91 % of control; the T/C under setting [9] was 91 % of control; the T/C (dose: 400.0 mg/kg/injection, schedule: Q04DX003 (ip), vehicle: saline with Tween-80) was 95 % of control.
As for `O=C1C=CC(=Nc2cc3c(cc2Br)-c2ccccc2C3=O)O1`, the T/C was 100 % of control and 98 % of control (dose: 3.12 mg/kg/injection, schedule: Q01DX005 (ip), vehicle: saline with Tween-80); 100 % of control and 104 % of control (dose: 6.25 mg/kg/injection, schedule: Q01DX005 (ip), vehicle: saline with Tween-80); 104 % of control and 105 % of control under setting [10]; 104 % of control and 106 % of control and 117 % of control under setting [11]; 103 % of control and 105 % of control under setting [12]; 104 % of control (dose: 100.0 mg/kg/injection, schedule: Q01DX005 (ip), vehicle: saline with Tween-80).
For `COc1cc(OC)c(C(C)=O)c(OC)c1OC`, the T/C under setting [13] was 106 % of control, the T/C under setting [14] is 113 % of control and the T/C under setting [15] is 106 % of control.
Turning to `C=CC1CCC[S+]1CC(=O)C(Cl)(Cl)Cl` (stereo unspecified), the T/C by setting is: (dose: 100.0 mg/kg/injection, schedule: Q01DX001 (ip), vehicle: saline with Tween-80) 102 % of control; (dose: 200.0 mg/kg/injection, schedule: Q01DX001 (ip), vehicle: saline with Tween-80) 109 % of control.
For the compound `COC1(C)CC(c2ccccc2)=NO1` (stereo unspecified), the T/C was 96 % of control under setting [16], 103 % of control under setting [17] and 96 % of control under setting [18].
Consider `COC(=O)C(C(=O)OC)=S1C(Cl)=CC=C1Cl`, for which the T/C (dose: 100.0 mg/kg/injection, schedule: Q04DX003 (ip), vehicle: saline) was 108 % of control; the T/C (dose: 200.0 mg/kg/injection, schedule: Q04DX003 (ip), vehicle: saline) was 104 % of control; the T/C (dose: 400.0 mg/kg/injection, schedule: Q04DX003 (ip), vehicle: saline) was 106 % of control.
As to `Cc1cccc(/C=C/c2csnn2)n1`, the T/C is 105 % of control under setting [16], 104 % of control under setting [17] and 96 % of control under setting [18].
On to `Cc1ccc(S(=O)(=O)N(N)CCC#N)cc1`, for which the T/C runs as follows: under setting [5], 94 % of control; under setting [6], 97 % of control; under setting [7], 96 % of control.
For `O=Nc1ccc(O)c2ncccc12`, the T/C is 111 % of control (dose: 50.0 mg/kg/injection, schedule: Q01DX001 (ip), vehicle: Klucel (hydroxypropylcellulose) (HPC)) and 121 % of control (dose: 100.0 mg/kg/injection, schedule: Q01DX001 (ip), vehicle: Klucel (hydroxypropylcellulose) (HPC)).
For `CCCCNC1=CC(=O)c2ccccc2C1=O`, the T/C was 99 % of control (dose: 50.0 mg/kg/injection, schedule: Q04DX003 (ip), vehicle: saline with Tween-80); 92 % of control under setting [8]; 88 % of control under setting [9].
For the compound `CCCC[P+](CCCC)(CCCC)CCN1C(=O)c2ccccc2C1=O`, the T/C was 92 % of control (dose: 0.78 mg/kg/injection, schedule: Q01DX009 (ip), vehicle: water); 93 % of control (dose: 1.56 mg/kg/injection, schedule: Q01DX009 (ip), vehicle: water); 106 % of control (dose: 3.13 mg/kg/injection, schedule: Q01DX009 (ip), vehicle: water); 99 % of control (dose: 6.25 mg/kg/injection, schedule: Q01DX009 (ip), vehicle: water); 100 % of control (dose: 12.5 mg/kg/injection, schedule: Q01DX009 (ip), vehicle: water); 100 % of control and 101 % of control (dose: 25.0 mg/kg/injection, schedule: Q01DX009 (ip), vehicle: water). Moreover, the T/C was 106 % of control (dose: 50.0 mg/kg/injection, schedule: Q01DX009 (ip), vehicle: water) and 116 % of control (dose: 100.0 mg/kg/injection, schedule: Q01DX009 (ip), vehicle: water).
With `CC1(C)c2ccccc2Nc2ccccc21`, the T/C reads like this: under setting [8], 100 % of control; under setting [9], 91 % of control.
For the compound `CC1Nc2ccccc2NC1C` (stereo unspecified), the T/C reads like this: (dose: 6.25 mg/kg/injection, schedule: Q01DX009 (ip), vehicle: saline + Tween-80 + alcohol) 98 % of control; (dose: 12.5 mg/kg/injection, schedule: Q01DX009 (ip), vehicle: saline + Tween-80 + alcohol) 96 % of control; (dose: 25.0 mg/kg/injection, schedule: Q01DX009 (ip), vehicle: saline + Tween-80 + alcohol) 99 % of control and 95 % of control; under setting [19], 91 % of control; under setting [20], 100 % of control.
Consider `CC(=O)OCC(=O)[C@@]1(O)CC[C@H]2[C@@H]3C[C@H](C)C4=CC(=O)C=C[C@]4(C)[C@H]3[C@@H](O)C[C@@]21C`, for which the T/C by setting is: under setting [14], 118 % of control; under setting [15], 104 % of control; (dose: 400.0 mg/kg/injection, schedule: Q01DX009 (ip), vehicle: saline with Tween-80) 100 % of control.
`O=C1CCCCC1C(=O)C(F)(F)F` (stereo unspecified): the T/C by setting is: under setting [19], 116 % of control; under setting [20], 106 % of control.
As to `C1=C(c2ccccc2)CC2CCC1N2Cc1ccccc1` (stereo unspecified), the T/C reads like this: under setting [10], 99 % of control; under setting [11], 103 % of control; under setting [12], 101 % of control and 103 % of control.
On to `Cn1c(C(O)CCl)nc2c3ccccc3ccc21` (stereo unspecified), for which the T/C runs as follows: (dose: 25.0 mg/kg/injection, schedule: Q01DX009 (ip), vehicle: saline) 109 % of control; under setting [3], 106 % of control; under setting [4], 109 % of control and 92 % of control.
Turning to `CCCCCCCCCCCCCC(CCCCCCCC)CCCCCCCC`, the T/C (dose: 50.0 mg/kg/injection, schedule: Q01DX001 (ip), vehicle: saline sonified) is 100 % of control; the T/C (dose: 100.0 mg/kg/injection, schedule: Q01DX001 (ip), vehicle: saline sonified) is 113 % of control; the T/C (dose: 200.0 mg/kg/injection, schedule: Q01DX001 (ip), vehicle: saline sonified) is 100 % of control.
Consider `CCOC(=O)Cn1c(=S)sc2ccccc21`, for which the T/C was 91 % of control (dose: 25.0 mg/kg/injection, schedule: Q01DX009 (ip), vehicle: saline with Tween-80); 89 % of control under setting [13]; 99 % of control under setting [14]; 91 % of control under setting [15].
Turning to `COC(COC(=O)N1CCN(C=O)CC1)C1=C(N2CC2)C(=O)C(C)=C(N2CC2)C1=O` (stereo unspecified), the T/C (dose: 3.13 mg/kg/injection, schedule: Q01DX005 (ip), vehicle: saline) is 177 % of control.
